Measurements: patent US10130830B2, “Preservative systems comprising cationic surfactants” (Laboratorios Miret, S.A., priority 2005, dated 2018)
“And” between values parts separate entries of the source, which are not always exact repeats. Equal entries are not always repeated.

Experiments:
Format in all cases: cell-based
aerobic total count [1] = experiment: Preservative action in bratwurst sausage, aerobic total count; conditions: Example 11, bratwurst sausage, LAE 0.2 g/kg
Experimental: (3) Determination of Preservative Action in Bratwurst Sausage.
The ingredients for all samples were : minced pork back, underbelly, spices, salt and additives (milk protein, diphosphate, antioxidant (E-300) and flavour enhance (E-621)).
1. On the cutter the minced pork back meat was ground and the ingredients were added in this order: the additives (except the preservative system), the underbelly, the spices and the preservative system (such as the cationic surfactant alone or in combination with other products). Ice was also added for controlling the temperature (maximum 5° C.) of the meat. The mixing time was 12 minutes.
2. The mass was vacuum mixed (92%) for 1 minute.
3. The mixture was stuffed into natural casings. The casings were previously soaked in a salted water solution for 30 minutes.
4. The bratwurst sausages were put in a cooking trolley. Cooking took place in a oven at 80° C. for 1 hour.
5. After cooking, the bratwurst sausages were sprayed with cool water for 5 minutes and put in a cold-storage room (0-5° C., 24 hours).
6. The next day, bratwurst sausages were packed (each packed contained five sausages) and pasteurised at 80° C. for 30 minutes and then. After, they were soaked in cool water for 30 minutes.
7. Finally, the bratwurst sausages were labelled and stored at 5° C. for 90 days.
Samples were analysed (aerobic total count) for up to 90 days. Aerobic total count was analysed by stomaching 25 g of sausage in 225 g of buffered peptone water. Dilutions were made in buffered peptone water. Tryptone Soya Agar was harvested with each dilution and incubated at 35° C. for 48 hours.
Average values in log cfu/g of three samples per treatment and day of analysis were calculated.

aerobic total count [2] = experiment: Preservative action in soaked chickpeas, aerobic total count; conditions: Example 13, soaked chickpeas, LAE 0.2 g/kg in soaking water, mean of triplicate
Experimental: (4) Determination of Preservative Action in Soaked Chick-peas.
Chickpeas are the principal ingredients in a lot of ready-to-eat meals. Before cooking them, chickpeas have to be soaked in water at room temperature for 24 hours. During this period, fermentation processes may occur and therefore, chickpeas would not be suitable for eating. The soaking process cannot be made at refrigeration temperatures, because the structure of the chickpeas could be damaged.
• 1. Chickpeas were soaked in water for 24 hours at 30° C. and 50% HR (in treated samples preservative was added at this point); and • 2. after 24 hours the chickpeas were strained. Analysis • Samples were analysed (aerobic total count and concentration of the cationic surfactant) by triplicate for 24 hours. • Aerobic total count was analysed by stomaching 25 g of chickpeas in 225 g of buffered peptone water. Dilutions were made in buffered peptone water. Tryptone Soya Agar was harvested with each dilution and incubated at 35° C. for 48 hours. • Average values in log cfu/g of three samples per treatment and day of analysis were calculated. • LAE was analysed by HPLC using an internally validated method.

aerobic total count [3] = experiment: Preservative action in cooked chicken breast, aerobic total count; conditions: for counts (aerobic total count): for 5 weeks
Experimental: (2) Determination of Preservative Action in Chicken Breast. Process of Preparation • 1. Fresh chicken breast was diced to pieces • 2. Brine (8.70% sodium chloride and 4.35% tripolyphosphate in water) was added to the fresh chicken in an amount of 11.5 g brine per 88.5 g meat in the control preparation and 11.5 g brine and 88.4 g meat in the preparations treated with preservative. • 3. Brine and meat were mixed during 15 minutes, in the preparations treated with preservative the preservative was added after 14 minutes in an amount of 0.2 g/kg. • 4. Vacuum refrigerate tumbling was made during 30 minutes. • 5. Samples were vacuum-packed in sterile bags and they were cooked at 85° C. for 30 minutes. • 6. The cooked chicken was refrigerated at 4° C. • 7. The cooked chicken was diced in irregular shapes. • 8. Then, the nuggets were stored at 10° C. in sterile vacuum-packed bags. Analysis […] Dilutions were made in buffered peptone water. Tryptone Soya Agar was harvested with each dilution and incubated at 35° C. for 48 hours. The mean value in log cfu/g of three samples per treatment and day of analysis was calculated.

`CCCCCCCCCCCC(=O)N[C@@H](CCCN=C(N)N)C(=O)OCC.Cl` [LAE, ethyl ester of the lauramide of the arginine monohydrochloride] was tested, and the “aerobic total count, mean” value (aerobic total count [1]; day 0, mean of three samples) was 2.0 log cfu/g, the “aerobic total count, mean” value (aerobic total count [1]; day 15, mean of three samples) was 2.0 log cfu/g and the “aerobic total count, mean” value (aerobic total count [1]; day 30, mean of three samples) was 2.4 log cfu/g. The “aerobic total count, mean” value (aerobic total count [1]; day 45, mean of three samples) was 2.8 log cfu/g, the “aerobic total count, mean” value (aerobic total count [1]; day 60, mean of three samples) was 3.4 log cfu/g and the “aerobic total count, mean” value (aerobic total count [1]; day 90, mean of three samples) was 4.2 log cfu/g. For the same molecule, the “aerobic total count, mean” value (aerobic total count [2]; 0 hours) was 2.0 log cfu/g, the “aerobic total count, mean” value (aerobic total count [2]; 4 hours) was 2.0 log cfu/g and the “aerobic total count, mean” value (aerobic total count [2]; 8 hours) was 2.5 log cfu/g. For the same molecule, the “aerobic total count, mean” value (aerobic total count [2]; 16 hours) was 3.8 log cfu/g, the “aerobic total count, mean” value (aerobic total count [3]; Example 9, cooked chicken, 0.2 g/kg, day 0, mean of triplicate) was 2.0 log cfu/g and the aerobic total count (aerobic total count [3]; Example 9, cooked chicken, 0.2 g/kg, day 0, samples 1-3) was 2.0 log cfu/g. For the same molecule, the “aerobic total count, mean” value (aerobic total count [3]; Example 9, cooked chicken, 0.2 g/kg, day 7, mean of triplicate) was 2.0 log cfu/g, the aerobic total count (aerobic total count [3]; Example 9, cooked chicken, 0.2 g/kg, day 7, samples 1-3) was 2.0 log cfu/g and the “aerobic total count, mean” value (aerobic total count [3]; Example 9, cooked chicken, 0.2 g/kg, day 14, mean of triplicate) was 2.3 log cfu/g. For the same molecule, the aerobic total count (aerobic total count [3]; Example 9, cooked chicken, 0.2 g/kg, day 14, samples 1-3, monohydrochloride) was 2.0 log cfu/g and 2.5 log cfu/g and 2.3 log cfu/g, the “aerobic total count, mean” value (aerobic total count [3]; Example 9, cooked chicken, 0.2 g/kg, day 21, mean of triplicate) was 2.8 log cfu/g and the aerobic total count (aerobic total count [3]; Example 9, cooked chicken, 0.2 g/kg, day 21, samples 1-3, monohydrochloride) was 3.0 log cfu/g and 2.8 log cfu/g and 2.6 log cfu/g. The “aerobic total count, mean” value (aerobic total count [3]; Example 9, cooked chicken, 0.2 g/kg, day 28, mean of triplicate) was 3.3 log cfu/g, the aerobic total count (aerobic total count [3]; Example 9, cooked chicken, 0.2 g/kg, day 28, samples 1-3) was 3.1 log cfu/g and the aerobic total count (aerobic total count [3]; Example 9, cooked chicken, 0.2 g/kg, day 28, samples 1-3, monohydrochloride) was 3.2 log cfu/g and 3.5 log cfu/g. For the same molecule, the “aerobic total count, mean” value (aerobic total count [3]; Example 9, cooked chicken, 0.2 g/kg, day 35, mean of triplicate) was 3.6 log cfu/g, the aerobic total count (aerobic total count [3]; Example 9, cooked chicken, 0.2 g/kg, day 35, samples 1-3) was 3.6 log cfu/g and the aerobic total count (aerobic total count [3]; Example 9, cooked chicken, 0.2 g/kg, day 35, samples 1-3, monohydrochloride) was 3.8 log cfu/g and 3.3 log cfu/g. The “aerobic total count, mean” value (aerobic total count [3]; Example 9, cooked chicken, 0.2 g/kg, day 42, mean of triplicate) was 4.1 log cfu/g, the aerobic total count (aerobic total count [3]; Example 9, cooked chicken, 0.2 g/kg, day 42, samples 1-3, monohydrochloride) was 4.0 log cfu/g and 4.3 log cfu/g and 4.1 log cfu/g and the “aerobic total count, mean” value (aerobic total count [3]; Example 9, cooked chicken, 0.2 g/kg, day 49, mean of triplicate) was 5.0 log cfu/g. For the same molecule, the aerobic total count (aerobic total count [3]; Example 9, cooked chicken, 0.2 g/kg, day 49, samples 1-3, monohydrochloride) was 5.1 log cfu/g and 4.7 log cfu/g and 5.2 log cfu/g, the “aerobic total count, mean” value (aerobic total count [3]; Example 9, cooked chicken, 0.2 g/kg, day 56 (8 weeks), mean of triplicate) was 5.4 log cfu/g and the aerobic total count (aerobic total count [3]; Example 9, cooked chicken, 0.2 g/kg, day 56, samples 1-3, monohydrochloride) was 5.3 log cfu/g and 5.2 log cfu/g and 5.5 log cfu/g. For the same molecule, the “counts (aerobic total count)” value (aerobic total count [3]; Example 9, cooked chicken, 0.2 g/kg) was “below 4.0 log cfu/g”, the “aerobic total count, mean” value (aerobic total count [3]; Example 14, cooked chicken, LAE 0.2 g/kg, day 0, mean of triplicate) was 2.0 log cfu/g and the “aerobic total count, mean” value (aerobic total count [3]; Example 14, cooked chicken, LAE 0.2 g/kg, day 7, mean of triplicate) was 2.0 log cfu/g. The aerobic total count (aerobic total count [3]; Example 14, cooked chicken, LAE 0.2 g/kg, day 7, samples 1-3) was 2.0 log cfu/g, the “aerobic total count, mean” value (aerobic total count [3]; Example 14, cooked chicken, LAE 0.2 g/kg, day 14, mean of triplicate) was 2.3 log cfu/g and the aerobic total count (aerobic total count [3]; Example 14, cooked chicken, LAE 0.2 g/kg, day 14, samples 1-3, monohydrochloride) was 2.2 log cfu/g and 2.6 log cfu/g. For the same molecule, the “aerobic total count, mean” value (aerobic total count [3]; Example 14, cooked chicken, LAE 0.2 g/kg, day 21, mean of triplicate) was 2.9 log cfu/g, the aerobic total count (aerobic total count [3]; Example 14, cooked chicken, LAE 0.2 g/kg, day 21, samples 1-3, monohydrochloride) was 3.0 log cfu/g and 2.8 log cfu/g and the “aerobic total count, mean” value (aerobic total count [3]; Example 14, cooked chicken, LAE 0.2 g/kg, day 28, mean of triplicate) was 3.4 log cfu/g. The aerobic total count (aerobic total count [3]; Example 14, cooked chicken, LAE 0.2 g/kg, day 28, samples 1-3) was 3.4 log cfu/g, the aerobic total count (aerobic total count [3]; Example 14, cooked chicken, LAE 0.2 g/kg, day 28, samples 1-3, monohydrochloride) was 3.2 log cfu/g and 3.5 log cfu/g and the “aerobic total count, mean” value (aerobic total count [3]; Example 14, cooked chicken, LAE 0.2 g/kg, day 35, mean of triplicate) was 3.8 log cfu/g. For the same molecule, the aerobic total count (aerobic total count [3]; Example 14, cooked chicken, LAE 0.2 g/kg, day 35, samples 1-3, monohydrochloride) was 3.6 log cfu/g and 3.8 log cfu/g and 3.9 log cfu/g, the “aerobic total count, mean” value (aerobic total count [3]; Example 14, cooked chicken, LAE 0.2 g/kg, day 42, mean of triplicate) was 4.0 log cfu/g and the aerobic total count (aerobic total count [3]; Example 14, cooked chicken, LAE 0.2 g/kg, day 42, samples 1-3, monohydrochloride) was 4.0 log cfu/g and 4.1 log cfu/g. For the same molecule, the “aerobic total count, mean” value (aerobic total count [3]; Example 14, cooked chicken, LAE 0.2 g/kg, day 49, mean of triplicate) was 5.1 log cfu/g, the aerobic total count (aerobic total count [3]; Example 14, cooked chicken, LAE 0.2 g/kg, day 49, samples 1-3, monohydrochloride) was 5.3 log cfu/g and 4.9 log cfu/g and 5.0 log cfu/g and the “aerobic total count, mean” value (aerobic total count [3]; Example 14, cooked chicken, LAE 0.2 g/kg, day 56 (8 weeks), mean of triplicate) was 5.6 log cfu/g. For the same molecule, the aerobic total count (aerobic total count [3]; Example 14, cooked chicken, LAE 0.2 g/kg, day 56, samples 1-3, monohydrochloride) was 5.2 log cfu/g, the “counts (aerobic total count)” value (aerobic total count [3]; Example 14, cooked chicken, LAE 0.2 g/kg) was “below 4.0 log cfu/g” and the “aerobic total count, mean” value (aerobic total count [3]; Example 16, cooked chicken, 0.20 g of LAE/kg, day 0, mean of triplicate) was 2.0 log cfu/g. The “aerobic total count, mean” value (aerobic total count [3]; Example 16, cooked chicken, 0.20 g of LAE/kg, day 7, mean of triplicate) was 2.0 log cfu/g, the “aerobic total count, mean” value (aerobic total count [3]; Example 16, cooked chicken, 0.20 g of LAE/kg, day 14, mean of triplicate) was 2.2 log cfu/g and the “aerobic total count, mean” value (aerobic total count [3]; Example 16, cooked chicken, 0.20 g of LAE/kg, day 21, mean of triplicate) was 2.8 log cfu/g. The “aerobic total count, mean” value (aerobic total count [3]; Example 16, cooked chicken, 0.20 g of LAE/kg, day 28, mean of triplicate) was 3.2 log cfu/g, the “aerobic total count, mean” value (aerobic total count [3]; Example 16, cooked chicken, 0.20 g of LAE/kg, day 35, mean of triplicate) was 3.6 log cfu/g and the “aerobic total count, mean” value (aerobic total count [3]; Example 16, cooked chicken, 0.20 g of LAE/kg, day 42, mean of triplicate) was 4.3 log cfu/g. The “aerobic total count, mean” value (aerobic total count [3]; Example 16, cooked chicken, 0.20 g of LAE/kg, day 49, mean of triplicate) was 4.9 log cfu/g, the “aerobic total count, mean” value (aerobic total count [3]; Example 16, cooked chicken, 0.20 g of LAE/kg, day 56 (8 weeks), mean of triplicate) was 5.5 log cfu/g and the “counts (aerobic total count)” value (aerobic total count [3]; Example 16, cooked chicken, LAE 0.2 g/kg) was “below 4.0 log cfu/g”. For the same molecule, the “aerobic total count, mean” value (aerobic total count [3]; Example 18, cooked chicken, 0.2 g of LAE/kg, day 0, mean of triplicate) was 2.0 log cfu/g, the “aerobic total count, mean” value (aerobic total count [3]; Example 18, cooked chicken, 0.2 g of LAE/kg, day 7, mean of triplicate) was 2.0 log cfu/g and the “aerobic total count, mean” value (aerobic total count [3]; Example 18, cooked chicken, 0.2 g of LAE/kg, day 14, mean of triplicate) was 2.4 log cfu/g. For the same molecule, the “aerobic total count, mean” value (aerobic total count [3]; Example 18, cooked chicken, 0.2 g of LAE/kg, day 21, mean of triplicate) was 2.9 log cfu/g, the “aerobic total count, mean” value (aerobic total count [3]; Example 18, cooked chicken, 0.2 g of LAE/kg, day 28, mean of triplicate) was 3.4 log cfu/g and the “aerobic total count, mean” value (aerobic total count [3]; Example 18, cooked chicken, 0.2 g of LAE/kg, day 35, mean of triplicate) was 3.7 log cfu/g. The “aerobic total count, mean” value (aerobic total count [3]; Example 18, cooked chicken, 0.2 g of LAE/kg, day 42, mean of triplicate) was 4.1 log cfu/g, the “aerobic total count, mean” value (aerobic total count [3]; Example 18, cooked chicken, 0.2 g of LAE/kg, day 49, mean of triplicate) was 5.2 log cfu/g and the “aerobic total count, mean” value (aerobic total count [3]; Example 18, cooked chicken, 0.2 g of LAE/kg, day 56 (8 weeks), mean of triplicate) was 5.7 log cfu/g. For the same molecule, the “counts (aerobic total count)” value (aerobic total count [3]; Example 18, cooked chicken, LAE 0.2 g/kg) was “below 4.0 log cfu/g”.
